Reference: PubChem BioAssay AID463199 (Broad Institute, 2010)
Active and inactive are the calls of the source.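 How the source made its calls: active means AC50, the dose giving half-maximal effect, exceeds a fixed cutoff for a compound that rescues yeast growth under heat; inactive means the rest, inconclusive results apart.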

Tested on: S. cerevisiae Burl-1 ts mutant growth, BacTiter-Glo, 38.5C 24 h
Assay: restored growth of temperature-sensitive Burl-1 yeast – whole organism, S. cerevisiae, Burl-1 ts mutant, luminescence, counter-screen for SUMOylation pathway inhibitor project, dose response (AID 463199)

SMILES | AC50
CN(c1ccccc1)c1ccc(/C=C/[N+](=O)[O-])cc1 | > 42 µM (inactive)
COc1ccccc1C(=O)NC(=O)COC(=O)Cc1ccccc1[N+](=O)[O-] | > 42 µM (inactive)
COc1nc(-c2ccccc2)ccc1-c1noc(-c2ccccc2)n1 | > 42 µM (inactive)
CCOc1ccc(NC(=O)CSc2nnc(Cc3csc(C)n3)o2)cc1 | > 42 µM (inactive)
Fc1ccc2nc(C3CCN(Cc4nc(CC5CC5)no4)CC3)[nH]c2c1 | > 42 µM (inactive)
CCN(CC)CC(=O)Nc1ccc(Oc2ccc(NC(=O)CN(CC)CC)cc2)cc1 | > 42 µM (inactive)
COC(=O)c1cc2occc2n1Cc1nc(-c2ccccc2C)oc1C | > 42 µM (inactive)
Cc1ccc2nc(SCC(=O)Nc3cccc(S(N)(=O)=O)c3)[nH]c2c1 | > 42 µM (inactive)
CCCNC(=O)CN(c1ccc(F)cc1)S(=O)(=O)c1ccc2c(c1)OCCO2 | > 42 µM (inactive)
Cn1c(-c2ccc3c(c2)OCO3)cnc1NC(=O)CCC(=O)NCCc1ccccc1 | > 42 µM (inactive)
O=C(NNC(=O)C12CC3CC(CC(C3)C1)C2)c1ccccn1 | > 42 µM (inactive)
CCOc1ccc(CCNC(=O)COC(=O)COc2ccc(C(C)=O)cc2)cc1OCC | > 42 µM (inactive)
CCN(CC)c1ncnc2ccc(Br)cc12 | > 42 µM (inactive)
CC(C)(C)C1c2[nH]c3ccccc3c2CCN1Cc1cccc(OCCO)c1 (stereo not drawn) | > 42 µM (inactive)
O=C(NNC(=O)c1ccc(-n2cncn2)c([N+](=O)[O-])c1)c1ccc(Cl)cc1 | > 42 µM (inactive)
Cc1cc(=O)n2[nH]c(-c3ccc(F)cc3)nc2n1 | > 42 µM (inactive)
C[N+](C)(C)CC(=O)Nc1ccc(Cl)cc1C(=O)c1ccccc1 | > 42 µM (inactive)
C[C@@]12C(=O)Nc3cc(F)ccc3C(=O)N1[C@H]1c3ccccc3OC[C@@H]1[C@@H]2c1ccccc1 | > 42 µM (inactive)
CCN1CCN(CC(=O)Nc2cccc(C)c2C)C(=O)C1=O | > 42 µM (inactive)
CC1=Nc2ccc(C)cc2N(Cc2ccccc2)C(=O)C1 | > 42 µM (inactive)
CCC(C)[C@H]1COCCS(=O)(=O)N1Cc1ccc(C)cc1 (stereo partly drawn) | > 42 µM (inactive)
CCN(CC)CCCNC(=O)C1c2ccccc2C(=O)N(CCOC)C1c1ccc(F)cc1 (stereo not drawn) | > 21 µM (inactive)
Cc1nc(CSc2nnc3scc(-c4ccccc4)n23)cs1 | > 42 µM (inactive)
CC1Cc2ccccc2N1C(=O)Cn1c(=O)cc(O)c2ccccc21 (stereo not drawn) | > 42 µM (inactive)
COc1ccc(-c2nc3c(c(SCC(=O)N4CCOCC4)n2)Cc2c(CO)cnc(C)c2O3)cc1 | > 42 µM (inactive)

SMILES | AC50
COc1ccc(N2C(=O)CSC23CCCCC3)cc1 | > 42 µM (inactive)
CN(C(=O)c1cncc(Br)c1)C1C2CC3CC(C2)CC1C3 (stereo not drawn) | 8.94 µM
Cc1nnc(SCC(=O)NCc2ccccc2Cl)[nH]c1=O | > 42 µM (inactive)
COc1ccc(NC(=O)C2CCN(c3cc(C)nc(-c4ccccc4)n3)CC2)cc1 | > 42 µM (inactive)
N=c1n(CCCOc2ccc(Br)cc2)c2ccccc2n1CC(N)=O | > 42 µM (inactive)
Cc1cccc(N(Cc2ccccc2)C(=O)CSC(C)C(=O)Nc2cc(C)on2)c1 (stereo not drawn) | > 42 µM (inactive)
CCOc1ccc(C(=O)Nc2ccc(N3CCN(C)CC3)cc2)cc1[N+](=O)[O-] | > 42 µM (inactive)
CCOc1ccc(C)cc1S(=O)(=O)n1nc(C)cc1C | > 42 µM (inactive)
CCOc1ccc(Cl)cc1CNc1nnnn1CC | > 42 µM (inactive)
O=S(=O)(NCc1cccc(C(F)(F)F)c1)NCc1ccccc1F | > 42 µM (inactive)
COc1cc(COc2ccc3c(C)c(CC(=O)O)c(=O)oc3c2C)cc(OC)c1OC | > 42 µM (inactive)
COC(=O)c1ccc2[nH]c(C(C)(C)O)c(C)c2c1 | > 42 µM (inactive)
CCOC(=O)N1CCN(C(=O)c2ccc3ccccc3c2)CC1 | > 42 µM (inactive)
Cc1c(Cl)cccc1NC(=O)Cn1c(CCC(=O)O)ccc1-c1ccccc1 | > 42 µM (inactive)
CC1CC(N(C(=O)c2ccccc2Cl)c2ccccc2)c2ccccc2N1 (stereo not drawn) | > 42 µM (inactive)
c1ccc2c(C[C@@H]3CNCCN3CCCCC3CCCCC3)cccc2c1 | > 42 µM (inactive)
CCOc1ccc2nc(C(C)O)[nH]c2c1 (stereo not drawn) | > 42 µM (inactive)
CCN1CCCC(NC(=O)c2scc3c2CCCC3)C1 (stereo not drawn) | > 42 µM (inactive)
CCCCc1n[nH]c(=S)n1Cc1ccc(C)cc1 | > 42 µM (inactive)
Cc1sc2ncnc(Nc3ccccc3)c2c1C | > 42 µM (inactive)
CCOC(=O)N1CCN(C(=O)c2ccccc2-c2ccccc2)CC1 | > 42 µM (inactive)
Cc1noc(C)c1S(=O)(=O)N1CCCC(C(=O)NCC2CCCO2)C1 (stereo not drawn) | > 42 µM (inactive)
COC(=O)c1sccc1NC(=O)CC1C(=O)NCCN1C(=O)Nc1ccc(F)cc1F (stereo not drawn) | > 42 µM (inactive)
COc1ccc(-c2csc(NC(=O)C3CSC4(C)CCC(=O)N34)n2)cc1 (stereo not drawn) | > 42 µM (inactive)
CC1c2cc3c(cc2CCN1CC(=O)Nc1ccccc1)OCCCO3 (stereo not drawn) | > 42 µM (inactive)

SMILES | AC50
CC(=O)c1cc(C)ccc1OC(=O)c1ccco1 | > 42 µM (inactive)
CC(Cc1ccc(O)c(O)c1)C(C)Cc1ccc(O)c(O)c1 (stereo not drawn) | > 42 µM (inactive)
O=C(O)C1CCCN1C(=O)c1cncc(Br)c1 (stereo not drawn) | > 42 µM (inactive)
O=[N+]([O-])c1ccc(N/N=C/c2cccc(O)c2)cc1 | > 42 µM (inactive)
COc1ccc(CN2CC(=O)N(c3ccccc3C)C2=S)cc1OC | > 42 µM (inactive)
COc1c(C)cc(S(=O)(=O)NC2CC(C)(C)NC(C)(C)C2)c(C)c1C | > 42 µM (inactive)
COc1ccc(/C=N/NC(=O)c2c(C)nc3ccccn23)cc1[N+](=O)[O-] | > 42 µM (inactive)
O=C1CCCC2=C1C(c1ccncc1)c1c(nc(SCc3ccccc3Cl)[nH]c1=O)N2 (stereo not drawn) | > 42 µM (inactive)
COc1cccc(C2/C(=C(/O)c3ccccc3)C(=O)C(=O)N2Cc2ccco2)c1 (stereo not drawn) | > 42 µM (inactive)
O=C(Nc1ccc2c(c1)CCCN2C(=O)c1cccs1)c1cccc(F)c1 | > 42 µM (inactive)
O=C(COC(=O)c1c(F)cccc1F)c1ccc[nH]1 | > 42 µM (inactive)
Cc1c(NC(=O)c2cc(-c3ccccc3O)on2)c(=O)n(-c2ccccc2)n1C | > 42 µM (inactive)
O=C(CSc1nnc(COc2ccccc2Cl)o1)NC(=O)NC1CCCC1 | > 42 µM (inactive)
O=C(Nc1cccnc1Cl)c1cc2ccccc2o1 | > 42 µM (inactive)
COc1ccc2c(c1)[C@H]1[C@H](CO2)[C@H](c2ccccc2)[C@]2(C)C(=O)Nc3cc(F)ccc3C(=O)N12 | > 42 µM (inactive)
COc1ccc(N2CCN(C(c3cccs3)C(C)NS(C)(=O)=O)CC2)cc1 (stereo not drawn) | > 42 µM (inactive)
Cc1cccc(N2CCN(C(=O)CN3C(=O)NC(C)(C)C3=O)CC2)c1C | > 42 µM (inactive)
COc1ccc(N2C(=O)CCC(C(=O)NCc3cccnc3)C2c2ccc(OC)c(OC)c2)cc1 (stereo not drawn) | > 42 µM (inactive)
CCc1c(C(=O)N2CCN(c3ccccc3F)CC2)[nH]c(C)c1C(C)=O | > 42 µM (inactive)
S=c1[nH]nc(-c2ccco2)n1-c1ccc(Br)cc1 | > 42 µM (inactive)
COc1ccc(CNC(=O)c2cc(=O)c3cc(C)cc(C)c3o2)cc1 | > 42 µM (inactive)
O=S(=O)(NCc1ccco1)c1ccc2ccccc2c1 | > 42 µM (inactive)
COc1ccc(OCCC(=O)c2ccc(OC)cc2)cc1 | > 42 µM (inactive)
COc1ccc(/C=C(\C#N)C(=O)NCCCn2ccnc2)cc1 | > 42 µM (inactive)
COc1ccc(NC(=O)CSc2nnc(-c3ccccn3)n2-c2ccccc2)cc1OC | > 42 µM (inactive)

SMILES | AC50
CN(CCOc1ccc(Cl)cc1)CC(=O)Nc1ccc(OC(F)F)cc1 | > 42 µM (inactive)
Cc1cc(C)c2cc(C)c3nnc(SCC(=O)NCc4ccc5c(c4)OCO5)n3c2c1 | > 42 µM (inactive)
O=C(CCNS(=O)(=O)c1cccc2nsnc12)NCCC1=CCCCC1 | > 42 µM (inactive)
O=C(CCN1CCc2ccccc2C1)Nc1ccc2c(c1)OCO2 | > 42 µM (inactive)
CC(=O)N/C(=C\c1ccccc1)C(=O)OCC(=O)c1ccccc1 | > 42 µM (inactive)
COCCn1c(C)cc(C(=O)CN2C(=O)NC3(CCCCCCC3)C2=O)c1C | > 42 µM (inactive)
COCC(C)n1c(C)cc(C(=O)CSc2ccc(NC(C)=O)cc2)c1C (stereo not drawn) | > 42 µM (inactive)
COc1cc2c(=O)n(CCC(=O)NCC3CCCO3)c(=O)n(CC(=O)Nc3ccccc3C)c2cc1OC (stereo not drawn) | > 42 µM (inactive)
CC(NC(=O)CCc1nnc(-c2ccc(-c3ccccc3)cc2)o1)c1nc2ccccc2[nH]1 (stereo not drawn) | > 42 µM (inactive)
CCC1(c2ccccc2)NC(=O)N(CC(=O)N(C)CC(=O)Nc2ccc(F)c(F)c2F)C1=O (stereo not drawn) | > 42 µM (inactive)
C=C(C)Cn1c(N)cc(=O)nc1SCC(=O)Nc1cccc(C(F)(F)F)c1 | > 42 µM (inactive)
Cc1ccc(C(=O)O)cc1N=Cc1cc(Br)cc(Br)c1O | > 42 µM (inactive)
CCCOC(=O)c1ccc(O)c(OC)c1 | > 42 µM (inactive)
COc1ccc(S(=O)(=O)N2CCN(c3ccc(F)cc3)CC2)cc1C(=O)N1CCOCC1 | > 42 µM (inactive)
CCOc1ccccc1NC(=O)c1ccc2c(c1)C(=O)N(CC(C)C)C2=O | > 42 µM (inactive)
Cc1cc(C(F)F)n2ncc(C(=O)NCCc3ccc(Cl)cc3)c2n1 | > 42 µM (inactive)
Cc1ccc(C)c(OCCCC(=O)N2CCOCC2)c1 | > 42 µM (inactive)
Cc1ccnc(NC(=O)CC(c2ccccc2)c2ccccc2)n1 | > 42 µM (inactive)
Cc1ccc2c(c1)C(=O)N1[C@H]3c4ccccc4OC[C@@H]3[C@H](c3ccccc3)[C@]1(C)C(=O)N2 | > 42 µM (inactive)
CCC(C)(C)n1nnnc1C(c1ccc(OC)c(OC)c1)N1CCN(c2cccc(OC)c2)CC1 (stereo not drawn) | > 42 µM (inactive)
O=C(Cc1ccc(Cl)cc1)NC(=S)Nc1ccccc1N1CCOCC1 | > 42 µM (inactive)
CC(=O)c1ccc(Oc2cc(C)nc(N3CCOCC3)n2)cc1 | > 42 µM (inactive)
COC(=O)[C@@H]1[C@@H](C(=O)OC)C2(c3ccccc3-c3ccccc32)N(c2ccc(Cl)cc2)N1C#N | > 42 µM (inactive)
